Experimental findings from patent US20060263802A1 (priority 2003, published 2006) are described below.

Assay type in all cases: binding
The subject of assay [1] is human monoclonal antibody CRJB.
For assay [2], the system named is human monoclonal antibody CRJA.
Assay [3] deals with human monoclonal antibody CRJB. The source holds these as a separate data set.
The subject of assay [4] is human monoclonal antibody CR57.
In assay [5] the test system is human monoclonal antibody CRJA. This is another data set of the same source.
Assay [6] relates to human monoclonal antibody CR57. This is another data set of the same source.

As to PDVHNQVSGVDLGLP, the “Binding of CRJB to looped/cyclic peptide (PEPSCAN-ELISA signal)” value in assay [1] worked out at 104. For the same sequence, in assay [2], the “Binding of human monoclonal antibody CRJA to linear peptide (PEPSCAN-ELISA signal)” value is on record as 107. Moreover, in assay [3], the “Binding of human monoclonal antibody CRJB to linear peptide (PEPSCAN-ELISA signal)” value was determined as 129. For the same sequence, in assay [4], the “Binding of CR57 to looped/cyclic peptide (PEPSCAN-ELISA signal)” value was 106. Besides, the “Binding of CRJA to looped/cyclic peptide (PEPSCAN-ELISA signal)” value in assay [5] came out at 115. For the same sequence, the “Binding of human monoclonal antibody CR57 to linear peptide (PEPSCAN-ELISA signal)” value in assay [6] is on record as 106.
In the case of CTNLSGFSYMELKVG, the “Binding of CRJB (10 μg/ml) to looped/cyclic peptide (PEPSCAN-ELISA signal)” value in assay [1] was determined as 96. The “Binding of CRJA to linear peptide (PEPSCAN-ELISA signal)” value (from here on “Binding of CRJA to linear peptide”) in assay [2] was determined as 84. The “Binding of CRJB to linear peptide (PEPSCAN-ELISA signal)” value (“Binding of CRJB to linear peptide” below) in assay [3] is given as 110. The “Binding of CR57 (10 μg/ml) to looped/cyclic peptide (PEPSCAN-ELISA signal)” value in assay [4] is recorded as 70. Also, the “Binding of CRJA (10 μg/ml) to looped/cyclic peptide (PEPSCAN-ELISA signal)” value in assay [5] was 79. Besides, the “Binding of CR57 to linear peptide (PEPSCAN-ELISA signal)” value (shortened to “Binding of CR57 to linear peptide”) in assay [6] is 47.
On to KLKLCGVLGLRLMDG, for which the “Binding of CRJB (10 μg/ml) to looped/cyclic peptide (PEPSCAN-ELISA)” value in assay [1] was 63. Moreover, the “Binding of CRJA to linear peptide” value in assay [2] worked out at 101. For the same sequence, in assay [3], the “Binding of CRJB to linear peptide” value was 120. Also, the “Binding of CR57 (10 μg/ml) to looped/cyclic peptide (PEPSCAN-ELISA)” value in assay [4] is listed as 13. Moreover, the “Binding of CRJA (10 μg/ml) to looped/cyclic peptide (PEPSCAN-ELISA)” value in assay [5] is on record as 79. In assay [6], the “Binding of CR57 to linear peptide” value came out at 273 and the “binding of antibody CR57 to linear peptide (PEPSCAN OD)” value is given as “bound”.
Take LSGFSYMELKVGYIL: the “Binding of CRJB (10 μg/ml) to looped/cyclic peptide (PEPSCAN-ELISA signal)” value in assay [1] is 74. Moreover, in assay [2], the “Binding of CRJA to linear peptide” value is 82. For the same sequence, the “Binding of CRJB to linear peptide” value in assay [3] was determined as 132. In addition, the “Binding of CR57 (10 μg/ml) to looped/cyclic peptide (PEPSCAN-ELISA signal)” value in assay [4] came out at 72. In addition, in assay [5], the “Binding of CRJA (10 μg/ml) to looped/cyclic peptide (PEPSCAN-ELISA signal)” value is reported as 83. Also, the “Binding of CR57 to linear peptide” value in assay [6] is 71.
As to VVTEAENYTNFVGYV, the “Binding of CRJB (10 μg/ml) to looped/cyclic peptide (PEPSCAN-ELISA signal)” value in assay [1] is 62. The “Binding of CRJA to linear peptide” value in assay [2] was found to be 90. In assay [3], the “Binding of CRJB to linear peptide” value amounted to 106. In addition, in assay [4], the “Binding of CR57 (10 μg/ml) to looped/cyclic peptide (PEPSCAN-ELISA signal)” value came to 80. In assay [5], the “Binding of CRJA (10 μg/ml) to looped/cyclic peptide (PEPSCAN-ELISA signal)” value amounted to 58. Besides, the “Binding of CR57 to linear peptide” value in assay [6] amounted to 87.
Take VGYILAIKMNGFTCT: the “Binding of CRJB (10 μg/ml) to looped/cyclic peptide (PEPSCAN-ELISA signal)” value in assay [1] was 86. Also, the “Binding of CRJA to linear peptide” value in assay [2] is 70. For the same sequence, the “Binding of CRJB to linear peptide” value in assay [3] stood at 93. Moreover, in assay [4], the “Binding of CR57 (10 μg/ml) to looped/cyclic peptide (PEPSCAN-ELISA signal)” value is listed as 97. In assay [5], the “Binding of CRJA (10 μg/ml) to looped/cyclic peptide (PEPSCAN-ELISA signal)” value is given as 105. Besides, the “Binding of CR57 to linear peptide” value in assay [6] is 77.
In the case of ADPSTVFKDGDEAED, the “Binding of CRJB to looped/cyclic peptide (PEPSCAN-ELISA signal)” value in assay [1] is given as 72. In assay [2], the “Binding of human monoclonal antibody CRJA to linear peptide (PEPSCAN-ELISA signal)” value is 101. Moreover, in assay [3], the “Binding of human monoclonal antibody CRJB to linear peptide (PEPSCAN-ELISA signal)” value is 152. In assay [4], the “Binding of CR57 to looped/cyclic peptide (PEPSCAN-ELISA signal)” value worked out at 118. Also, the “Binding of CRJA to looped/cyclic peptide (PEPSCAN-ELISA signal)” value in assay [5] was found to be 101. Besides, the “Binding of human monoclonal antibody CR57 to linear peptide (PEPSCAN-ELISA signal)” value in assay [6] is recorded as 147.
As to CSTNHDYTIWMPENP, in assay [1], the “Binding of CRJB (10 μg/ml) to looped/cyclic peptide (PEPSCAN-ELISA signal)” value came out at 72. For the same sequence, in assay [2], the “Binding of CRJA to linear peptide” value was 58. Moreover, the “Binding of CRJB to linear peptide” value in assay [3] worked out at 106. Also, the “Binding of CR57 (10 μg/ml) to looped/cyclic peptide (PEPSCAN-ELISA signal)” value in assay [4] is 47. For the same sequence, the “Binding of CRJA (10 μg/ml) to looped/cyclic peptide (PEPSCAN-ELISA signal)” value in assay [5] is 41. Besides, the “Binding of CR57 to linear peptide” value in assay [6] is on record as 52.
Take PSGKCSGVAVSSTYC: the “Binding of CRJB (10 μg/ml) to looped/cyclic peptide (PEPSCAN-ELISA signal)” value in assay [1] stood at 48. For the same sequence, in assay [2], the “Binding of CRJA to linear peptide” value is reported as 106. Moreover, the “Binding of CRJB to linear peptide” value in assay [3] amounted to 112. For the same sequence, in assay [4], the “Binding of CR57 (10 μg/ml) to looped/cyclic peptide (PEPSCAN-ELISA signal)” value is 58. Also, the “Binding of CRJA (10 μg/ml) to looped/cyclic peptide (PEPSCAN-ELISA signal)” value in assay [5] was 73. Besides, the “Binding of CR57 to linear peptide” value in assay [6] is given as 56.
